# In article PMC11487561 (ACS Chemical Neuroscience, 2024):
# Columns and labels:
# hCav1.2 = molecular target: T1, hCav1.2 (Homo sapiens, UniProt Q13936); test: Cardiac Ion Channel Panel – Charles River (QPatch HT patch clamp); assay type: cell-based
# T1 construct: Charles River Laboratories
# Protocol: (§1) page 17: Table S3. Cardiac Ion Channel Panel - Charles River Laboratories for VU6016235 Ion Channel Concentration Mean % Standard Standard n (μM) Inhibition Deviation Error hCav1.2 10 13.9 8.9 5.1 3 hCav3.2 10 6.7 2.7 1.4 4 hHCN2 10 2.6 1.9 1.1 3 hERG 10 10.9 0.9 0.4 4 hKv1.5 10 1.3 1.8 0.9 4 […] 10 4.1 5.6 2.8 4 hKv1.3 10 9 2.9 1.7 3 hNav1.5 (Tonic) 10 5.8 0.6 0.4 3 […] (Phasic) The in vitro effects of VU6016235 were evaluated at room temperature using the QPatch HT® (Sophion Bioscience A/S, Denmark), an automatic parallel patch clamp system. VU6016235 was evaluated at a concentration of 10 μM and tested in at least 3 cells (n ≥ 3). The duration of exposure to each test article concentration was at least 5 minutes. Rat Amphetamine-Induced Hyperlocomotion (AHL) Protocol Male Harlan Sprague Dawley rats with a mean body weight of 240 g (range 221-264 g) were tested in SmartFrame Open Field locomotor activity test chambers to automatically record locomotor activity. All […] for an additional 30 min with either vehicle or a dose of VU6016235 or the comparator M 4 PAM […] Next, rats were injected subcutaneously with vehicle or a dose of 0.75 mg/kg amphetamine and then monitored for an additional 60 min. Changes in locomotor activity were recorded for a total of 120 min. Locomotor data were expressed as the number of photobeam breaks/5 min intervals across the 120-min test session or as the total ambulation, calculated as sum of photobeam beam breaks from the time of amphetamine administration (60 min) until the end of the study (120 min). Time course data were analyzed by two-way ANOVA with main effects of treatment and time; changes in total ambulation were analyzed by one-way ANOVA followed by Dunnett's post hoc test (GraphPad Prism 7 [GraphPad Software, San Diego, CA]). For all tests, α ≤ 0.05 was considered to represent statistical significance. Finally, percent reversal data were calculated in Microsoft Excel using the following formula: Percent Reversal = 100 - {[(total ambulation in individual animal from t = 60 to t = 120) / (mean total ambulation S17
# hCav3.2 = molecular target: T2, hCav3.2 (Homo sapiens, UniProt O95180); test: as above; assay type: cell-based
# T2 construct: Charles River Laboratories
# T2 sequence (O95180 whole entry): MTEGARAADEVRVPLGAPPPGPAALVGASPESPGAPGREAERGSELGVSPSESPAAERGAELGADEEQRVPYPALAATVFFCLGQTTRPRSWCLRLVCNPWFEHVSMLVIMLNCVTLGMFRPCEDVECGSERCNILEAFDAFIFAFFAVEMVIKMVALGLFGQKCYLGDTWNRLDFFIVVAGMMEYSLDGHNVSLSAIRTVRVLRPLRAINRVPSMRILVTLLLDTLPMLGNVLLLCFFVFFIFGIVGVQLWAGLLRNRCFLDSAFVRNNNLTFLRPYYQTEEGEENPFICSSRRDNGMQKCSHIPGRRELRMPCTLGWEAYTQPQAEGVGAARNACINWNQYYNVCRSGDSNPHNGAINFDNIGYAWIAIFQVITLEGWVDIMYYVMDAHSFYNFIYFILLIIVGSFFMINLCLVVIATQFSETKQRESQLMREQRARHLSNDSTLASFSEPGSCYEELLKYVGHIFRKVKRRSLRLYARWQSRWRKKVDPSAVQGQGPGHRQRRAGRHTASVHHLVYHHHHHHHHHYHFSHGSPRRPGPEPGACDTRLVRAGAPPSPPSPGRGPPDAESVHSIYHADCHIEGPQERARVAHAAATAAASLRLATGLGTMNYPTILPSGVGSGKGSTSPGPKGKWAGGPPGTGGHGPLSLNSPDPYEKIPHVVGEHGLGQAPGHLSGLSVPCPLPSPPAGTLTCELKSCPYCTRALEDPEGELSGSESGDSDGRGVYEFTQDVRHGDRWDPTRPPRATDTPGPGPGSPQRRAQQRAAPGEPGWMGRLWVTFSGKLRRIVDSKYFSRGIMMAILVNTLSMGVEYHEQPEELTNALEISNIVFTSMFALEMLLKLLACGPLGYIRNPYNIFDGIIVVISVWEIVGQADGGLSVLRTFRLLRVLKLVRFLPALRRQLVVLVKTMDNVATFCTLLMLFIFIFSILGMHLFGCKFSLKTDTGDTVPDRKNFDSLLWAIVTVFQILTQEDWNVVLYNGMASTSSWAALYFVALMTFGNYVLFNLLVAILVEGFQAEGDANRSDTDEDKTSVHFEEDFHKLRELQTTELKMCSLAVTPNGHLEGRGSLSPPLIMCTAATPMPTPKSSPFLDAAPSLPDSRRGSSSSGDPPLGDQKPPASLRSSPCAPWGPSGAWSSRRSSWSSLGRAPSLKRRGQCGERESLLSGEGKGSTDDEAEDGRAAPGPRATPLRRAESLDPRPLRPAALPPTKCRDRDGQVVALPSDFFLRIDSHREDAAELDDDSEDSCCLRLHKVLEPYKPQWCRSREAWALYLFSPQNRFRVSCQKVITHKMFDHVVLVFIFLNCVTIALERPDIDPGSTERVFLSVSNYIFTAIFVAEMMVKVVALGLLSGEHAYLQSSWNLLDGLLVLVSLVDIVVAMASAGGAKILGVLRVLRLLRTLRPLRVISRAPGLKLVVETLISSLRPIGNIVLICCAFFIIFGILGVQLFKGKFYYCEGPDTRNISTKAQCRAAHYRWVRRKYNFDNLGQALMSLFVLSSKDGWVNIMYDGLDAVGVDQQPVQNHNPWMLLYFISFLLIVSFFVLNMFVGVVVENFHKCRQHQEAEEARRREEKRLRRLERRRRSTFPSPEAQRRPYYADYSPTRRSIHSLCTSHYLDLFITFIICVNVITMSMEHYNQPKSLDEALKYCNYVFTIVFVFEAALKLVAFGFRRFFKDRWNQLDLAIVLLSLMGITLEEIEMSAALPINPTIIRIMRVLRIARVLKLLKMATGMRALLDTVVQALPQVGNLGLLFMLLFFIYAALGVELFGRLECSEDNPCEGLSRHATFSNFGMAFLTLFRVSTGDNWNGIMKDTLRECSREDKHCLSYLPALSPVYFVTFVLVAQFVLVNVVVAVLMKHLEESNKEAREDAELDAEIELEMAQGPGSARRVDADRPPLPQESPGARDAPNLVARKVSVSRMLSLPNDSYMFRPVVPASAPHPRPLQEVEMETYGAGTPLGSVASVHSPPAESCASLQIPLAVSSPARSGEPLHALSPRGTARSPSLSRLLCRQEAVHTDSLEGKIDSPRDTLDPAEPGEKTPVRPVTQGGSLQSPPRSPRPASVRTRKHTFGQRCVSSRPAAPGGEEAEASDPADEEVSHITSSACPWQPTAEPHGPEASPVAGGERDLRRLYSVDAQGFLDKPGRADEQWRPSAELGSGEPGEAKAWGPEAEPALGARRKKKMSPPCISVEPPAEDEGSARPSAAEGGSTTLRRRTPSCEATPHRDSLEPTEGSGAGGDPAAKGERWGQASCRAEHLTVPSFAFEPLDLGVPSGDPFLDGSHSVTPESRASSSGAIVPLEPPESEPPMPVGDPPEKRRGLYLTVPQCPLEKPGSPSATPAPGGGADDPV
# Protocol: as §1
# hERG = molecular target: T3, hERG (Homo sapiens, UniProt Q12809); test: as above; assay type: cell-based
# T3 construct: Charles River Laboratories
# T3 sequence (Q12809 whole entry): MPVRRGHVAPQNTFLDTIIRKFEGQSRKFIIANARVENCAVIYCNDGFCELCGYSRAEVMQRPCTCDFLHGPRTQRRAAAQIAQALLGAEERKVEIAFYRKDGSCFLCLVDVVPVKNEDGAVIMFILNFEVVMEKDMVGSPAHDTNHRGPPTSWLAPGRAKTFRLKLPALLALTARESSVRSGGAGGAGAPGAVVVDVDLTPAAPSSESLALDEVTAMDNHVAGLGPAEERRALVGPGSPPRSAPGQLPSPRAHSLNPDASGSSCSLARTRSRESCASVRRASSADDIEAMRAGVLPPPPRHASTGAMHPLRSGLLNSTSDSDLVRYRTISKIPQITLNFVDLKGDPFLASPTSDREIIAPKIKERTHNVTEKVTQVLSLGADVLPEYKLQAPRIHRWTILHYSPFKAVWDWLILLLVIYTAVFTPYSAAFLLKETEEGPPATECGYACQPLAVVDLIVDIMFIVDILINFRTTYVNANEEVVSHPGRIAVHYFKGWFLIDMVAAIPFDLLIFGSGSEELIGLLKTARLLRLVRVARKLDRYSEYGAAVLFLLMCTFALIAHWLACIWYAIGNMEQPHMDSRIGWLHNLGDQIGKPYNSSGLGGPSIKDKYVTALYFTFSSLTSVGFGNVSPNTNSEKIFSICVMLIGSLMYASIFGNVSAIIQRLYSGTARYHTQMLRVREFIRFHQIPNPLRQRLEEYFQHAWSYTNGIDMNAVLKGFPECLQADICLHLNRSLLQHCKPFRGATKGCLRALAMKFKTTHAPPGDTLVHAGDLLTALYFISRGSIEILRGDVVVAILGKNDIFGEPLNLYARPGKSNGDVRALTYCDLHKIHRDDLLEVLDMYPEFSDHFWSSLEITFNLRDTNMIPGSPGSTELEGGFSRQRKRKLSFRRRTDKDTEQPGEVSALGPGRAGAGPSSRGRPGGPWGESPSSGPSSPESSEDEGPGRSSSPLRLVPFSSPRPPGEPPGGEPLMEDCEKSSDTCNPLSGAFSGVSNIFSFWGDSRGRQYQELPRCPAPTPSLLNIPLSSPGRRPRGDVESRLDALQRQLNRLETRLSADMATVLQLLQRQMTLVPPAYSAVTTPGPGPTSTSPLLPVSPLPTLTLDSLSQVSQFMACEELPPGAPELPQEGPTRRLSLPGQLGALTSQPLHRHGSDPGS
# Protocol: as §1
# hHCN2 = molecular target: T4, hHCN2 (Homo sapiens, UniProt Q9UL51); test: as above; assay type: cell-based
# T4 construct: Charles River Laboratories
# Protocol: as §1
# hKv1.3 = molecular target: T5, hKv1.3 (Homo sapiens, UniProt P22001); test: as above; assay type: cell-based
# T5 construct: Charles River Laboratories
# T5 sequence (P22001 whole entry): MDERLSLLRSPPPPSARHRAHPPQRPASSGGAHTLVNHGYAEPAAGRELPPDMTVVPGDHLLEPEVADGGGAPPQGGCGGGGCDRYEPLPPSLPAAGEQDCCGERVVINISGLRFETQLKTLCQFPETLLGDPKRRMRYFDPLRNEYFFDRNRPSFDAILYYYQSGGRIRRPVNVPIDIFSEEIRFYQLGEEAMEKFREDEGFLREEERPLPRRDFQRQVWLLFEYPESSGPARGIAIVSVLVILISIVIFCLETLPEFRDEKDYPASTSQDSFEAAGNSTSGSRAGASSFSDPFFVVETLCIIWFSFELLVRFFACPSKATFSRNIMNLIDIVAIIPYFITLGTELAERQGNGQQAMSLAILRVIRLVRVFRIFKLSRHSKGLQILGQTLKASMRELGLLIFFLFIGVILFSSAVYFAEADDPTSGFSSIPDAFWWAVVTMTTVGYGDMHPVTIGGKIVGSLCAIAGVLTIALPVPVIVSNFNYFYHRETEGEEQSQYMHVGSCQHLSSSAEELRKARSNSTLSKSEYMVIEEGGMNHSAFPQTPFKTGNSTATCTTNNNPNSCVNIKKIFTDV
# Protocol: as §1
# hKv1.5 = molecular target: T6, hKv1.5 (Homo sapiens, UniProt P22460); test: as above; assay type: cell-based
# T6 construct: Charles River Laboratories
# Protocol: as §1
# hKvLQT1/minK = molecular target: T7, hKvLQT1/minK (Homo sapiens, UniProt P51787); test: as above; assay type: cell-based
# T7 construct: Charles River Laboratories
# Protocol: as §1
# hNav1.5 (Phasic) = molecular target: T8, hNav1.5 (Phasic) (Homo sapiens, UniProt Q14524); test: as above; assay type: cell-based
# T8 construct: Charles River Laboratories
# Protocol: as §1
# hNav1.5 (Tonic) = molecular target: T9, hNav1.5 (Tonic) (Homo sapiens, UniProt Q14524); test: as above; assay type: cell-based
# T9 construct: Charles River Laboratories
# Protocol: as §1
# Adenosine A2A = molecular target: T10, Adenosine A2A (Homo sapiens, UniProt P29274); test: Lead Profiling Screen – Eurofins Panlabs; assay type: binding; settings: read-out: % inh at 10 μM
# T10 construct: Eurofins Panlabs
# T10 sequence (P29274 whole entry): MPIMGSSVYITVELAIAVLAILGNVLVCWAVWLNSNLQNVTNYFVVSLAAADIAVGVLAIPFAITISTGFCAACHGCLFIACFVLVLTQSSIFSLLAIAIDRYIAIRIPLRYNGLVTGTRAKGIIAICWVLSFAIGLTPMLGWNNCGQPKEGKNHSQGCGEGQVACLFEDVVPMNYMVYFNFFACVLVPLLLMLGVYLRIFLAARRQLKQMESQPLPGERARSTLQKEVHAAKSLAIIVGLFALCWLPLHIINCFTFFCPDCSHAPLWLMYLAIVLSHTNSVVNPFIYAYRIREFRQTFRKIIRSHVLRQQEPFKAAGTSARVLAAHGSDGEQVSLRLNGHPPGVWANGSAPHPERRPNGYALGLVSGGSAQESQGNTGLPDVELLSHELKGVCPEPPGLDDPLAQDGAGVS
# Bradykinin B1 = molecular target: T11, Bradykinin B1 (Homo sapiens, UniProt P46663); test: Lead Profiling Screen – Eurofins Panlabs; assay type: binding; settings: read-out: % inh at 10 μM
# T11 construct: Eurofins Panlabs (contract screen)
# T11 sequence (P46663 whole entry): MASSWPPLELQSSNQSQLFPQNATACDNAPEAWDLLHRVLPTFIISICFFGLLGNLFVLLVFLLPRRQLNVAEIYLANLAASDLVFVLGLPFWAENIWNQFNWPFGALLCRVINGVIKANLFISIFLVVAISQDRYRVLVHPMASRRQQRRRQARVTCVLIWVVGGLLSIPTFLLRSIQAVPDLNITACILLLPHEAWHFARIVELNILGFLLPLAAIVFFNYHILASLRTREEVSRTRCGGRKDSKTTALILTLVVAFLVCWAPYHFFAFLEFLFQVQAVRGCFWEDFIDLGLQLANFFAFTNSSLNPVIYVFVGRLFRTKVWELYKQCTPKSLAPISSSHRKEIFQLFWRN
# Endothelin ETB = molecular target: T12, Endothelin ETB (Homo sapiens, UniProt P24530); test: Lead Profiling Screen – Eurofins Panlabs; assay type: binding; settings: read-out: % inh at 10 μM
# T12 construct: Eurofins Panlabs (contract screen)
# [1] = molecular target: T13, Epidermal Growth Factor (EGF) (Homo sapiens, UniProt P00533); test: Lead Profiling Screen – Eurofins Panlabs; assay type: binding; settings: read-out: % inh at 10 μM
# T13 construct: Eurofins Panlabs (contract screen)
# Imidazoline I2, Central = test: Lead Profiling Screen – Eurofins Panlabs; assay type: binding, rat
# [2] = molecular target: Leukotriene, Cysteinyl CysLT1 (Homo sapiens, UniProt Q9Y271); test: Lead Profiling Screen – Eurofins Panlabs; assay type: binding; settings: read-out: % inh at 10 μM
# Sodium Channel, Site 2 = test: Lead Profiling Screen – Eurofins Panlabs; assay type: binding, rat
# [3] = molecular target: Transporter, Dopamine (DAT) (Homo sapiens, UniProt Q01959); test: Lead Profiling Screen – Eurofins Panlabs; assay type: binding; settings: read-out: % inh at 10 μM
compound,measurement,setting,value
Cc1nc(C)c2c(n1)sc1c(NCc3ccc(C(C)(C)O)cc3)nccc12 [22g],inhibition at 10 µM,hCav1.2,13.9%
same,inhibition at 10 µM,hCav3.2,6.7%
same,inhibition at 10 µM,hERG,10.9%
same,inhibition at 10 µM,hHCN2,2.6%
same,inhibition at 10 µM,hKv1.3,9%
same,inhibition at 10 µM,hKv1.5,1.3%
same,inhibition at 10 µM,hKvLQT1/minK,4.1%
same,inhibition at 10 µM,hNav1.5 (Phasic),6.9%
same,inhibition at 10 µM,hNav1.5 (Tonic),5.8%
same,inhibition at 10 µM,Adenosine A2A,28%
same,inhibition at 10 µM,Bradykinin B1,-1%
same,inhibition at 10 µM,Endothelin ETB,6%
same,inhibition at 10 µM,[1],-3%
same,% inh at 10 μM,"Imidazoline I2, Central",-1%
same,inhibition at 10 µM,[2],6%
same,% inh at 10 μM,"Sodium Channel, Site 2",3%
same,inhibition at 10 µM,[3],25%
